Assay results: US9925263B2, “Liquid pharmaceutical formulations for injection comprising procaine and uses thereof” (EAGLE BIOLOGICS, INC., priority 2013, dated 2018)
Where a name gives a salt, the structure may show the parent alone. Read-outs that look alike come from different tables or passages of the source.

Tests used:
[1] = system: Crohn's and ulcerative colitis patients; details: studies evaluating long-term clinical outcomes; cited from earlier work
SIMPONI ARIA® = details: […] thiamine HCl vs […] phosphate buffer; FIG. 9
Method: (§2) All viscosities of well-mixed aqueous mAb solutions were measured using either a mVROC microfluidic viscometer (RheoSense) or a DV2T cone and plate viscometer (Brookfield; “C & P”) after a 5 minute equilibration at 25° C. […] The mVROC viscometer was equipped with an “A” or “B” chip, each manufactured with a 50 micron channel. Typically, 0.10 mL of protein solution was back-loaded into a gastight microlab instrument syringe (Hamilton; 100 μL), affixed to the chip, and measured at multiple flow rates, approximately 20%, 40%, and 60% of the maximum pressure for each chip. […] An average absolute viscosity and standard deviation was then calculated from at least these three measurements. The C & P viscometer was equipped with a CPE40 or CPE52 spindle (cone angle of 0.8° and 3.0°, respectively) and 0.50 mL samples were measured at multiple shear rates between 2 and 400 s^−1. Specifically, samples were measured for 30 seconds each at 22.58, 24.38, 26.25, 28.13, 30, 31.88, 45, 67.5, 90, 112.5, 135, 157.5, 180, 202.5, 247, 270, 292.5, 315, 337.5, 360, 382, 400 s^−1, starting at a shear rate that gave at least 10% torque, and continuing until instrument torque reached 100%. An extrapolated zero-shear viscosity was then determined from a plot of dynamic viscosity versus shear rate for the samples measured on a DV2T cone and plate viscometer. […]

REMICADE® = assay: Viscosity of aqueous solutions of […]® with viscosity-lowering agents; assay type: physicochemical; details: 25° C.
Method: (§1) (unless otherwise indicated).
An extrapolated zero-shear viscosity was determined from a plot of absolute viscosity versus shear rate.
Following reconstitution, the viscosity of each solution was measured using the microfluidic viscometer as described in previous examples. The solutions were then back-loaded into 1 mL BD insulin syringes with 27, 29, or 31 gauge fixed needles. The force required to extrude the concentrated […]® solutions was then measured using an Instron at a rate of displacement equivalent to a fluid flow rate of 3 mL/min. The expelled solution was collected from the syringe and analyzed by size-exclusion chromatography.

[2] = system: biosimilar AVASTIN®, TYSABRI®, HERCEPTIN®, biosimilar ERBITUX®, REMICADE®; details: thiamine HCl 0.1-0.25 M vs 0.25 M PB; Table 33
Method: as §2

biosimilar AVASTIN® = assay: Viscosity of aqueous solutions of biosimilar AVASTIN® with viscosity-lowering agents; assay type: physicochemical; details: for Magnitude of viscosity-lowering effect (replacement of PB with CSAL): 0.25 M
HERCEPTIN® = assay: Viscosity of aqueous solutions of HERCEPTIN® with viscosity-lowering agents; assay type: physicochemical; details: 25° C.
Method: All viscosities of well-mixed aqueous mAb solutions were measured using either a mVROC microfluidic viscometer (RheoSense) or a DV2T cone and plate viscometer (Brookfield; “C & P”) after a 5 minute equilibration at 25° C. (unless otherwise indicated). The mVROC viscometer was equipped with an “A” or “B” chip, each manufactured with a 50 micron channel. Typically, 0.10 mL of protein solution was back-loaded into a gastight microlab instrument syringe (Hamilton; 100 μL), affixed to the chip, and measured at multiple flow rates, approximately 20%, 40%, and 60% of the maximum pressure for each chip. […] An average absolute viscosity and standard deviation was then calculated from at least these three measurements. The C & P viscometer was equipped with a CPE40 or CPE52 spindle (cone angle of 0.8° and 3.0°, respectively) and 0.50 mL samples were measured at multiple shear rates between 2 and 400 s^−1. Specifically, samples were measured for 30 seconds each at 22.58, 24.38, 26.25, 28.13, 30, 31.88, 45, 67.5, 90, 112.5, 135, 157.5, 180, 202.5, 247, 270, 292.5, 315, 337.5, 360, 382, 400 s^−1, starting at a shear rate that gave at least 10% torque, and continuing until instrument torque reached 100%. An extrapolated zero-shear viscosity was then determined from a plot of dynamic viscosity versus shear rate for the samples measured on a DV2T cone and plate viscometer. The extrapolated zero-shear viscosities reported are the average and standard deviation of at least three measurements.
(§3) Viscosities were measured using a RheoSense mVROC microfluidic viscometer equipped with an “A” or “B” chip.
Viscosities reported were measured on a RheoSense mVROC microfluidic viscometer.

TYSABRI® = assay: Viscosity of aqueous solutions of TYSABRI® with viscosity-lowering agents; assay type: physicochemical; details: 25° C.
Method: (§4) All viscosities of well-mixed aqueous mAb solutions were measured using either a mVROC microfluidic viscometer (RheoSense) or a DV2T cone and plate viscometer (Brookfield; “C & P”) after a 5 minute equilibration at 25° C. […] The mVROC viscometer was equipped with an “A” or “B” chip, each manufactured with a 50 micron channel. Typically, 0.10 mL of protein solution was back-loaded into a gastight microlab instrument syringe (Hamilton; 100 μL), affixed to the chip, and measured at multiple flow rates, approximately 20%, 40%, and 60% of the maximum pressure for each chip. […] An average absolute viscosity and standard deviation was then calculated from at least these three measurements. The C & P viscometer was equipped with a CPE40 or CPE52 spindle (cone angle of 0.8° and 3.0°, respectively) and 0.50 mL samples were measured at multiple shear rates between 2 and 400 s^−1. Specifically, samples were measured for 30 seconds each at 22.58, 24.38, 26.25, 28.13, 30, 31.88, 45, 67.5, 90, 112.5, 135, 157.5, 180, 202.5, 247, 270, 292.5, 315, 337.5, 360, 382, 400 s^−1, starting at a shear rate that gave at least 10% torque, and continuing until instrument torque reached 100%. An extrapolated zero-shear viscosity was then determined from a plot of dynamic viscosity versus shear rate for the samples measured on a DV2T cone and plate viscometer. The extrapolated zero-shear viscosities reported are the average and standard deviation of at least three measurements.
as §3
(§5) Subsequently, the aqueous drug product was purified, buffer exchanged, concentrated, dried, reconstituted, and analyzed as described in the same manner. Viscosities reported were measured on a RheoSense mVROC microfluidic viscometer.

biosimilar ERBITUX® = assay: Viscosity of aqueous solutions of biosimilar ERBITUX® with viscosity-lowering agents; details: for Fold Reduction: vs phosphate buffer
Method: All viscosities of well-mixed aqueous mAb solutions were measured using either a mVROC microfluidic viscometer (RheoSense) or a DV2T cone and plate viscometer (Brookfield; “C & P”) after a 5 minute equilibration at 25° C. (unless otherwise indicated). The mVROC viscometer was equipped with an “A” or “B” chip, each manufactured with a 50 micron channel. Typically, 0.10 mL of protein solution was back-loaded into a gastight microlab instrument syringe (Hamilton; 100 μL), affixed to the chip, and measured at multiple flow rates, approximately 20%, 40%, and 60% of the maximum pressure for each chip. […] An average absolute viscosity and standard deviation was then calculated from at least these three measurements. The C & P viscometer was equipped with a CPE40 or CPE52 spindle (cone angle of 0.8° and 3.0°, respectively) and 0.50 mL samples were measured at multiple shear rates between 2 and 400 s^−1. […] An extrapolated zero-shear viscosity was then determined from a plot of dynamic viscosity versus shear rate for the samples measured on a DV2T cone and plate viscometer. The extrapolated zero-shear viscosities reported are the average and standard deviation of at least three measurements.
First, Polysorbate 80 was removed using DETERGENT-OUT® TWEEN® Medi Columns (G-Biosciences). […] The collected protein solution was freeze-dried. The dried protein cakes, containing protein and buffer salts or agent, were reconstituted to a final volume of 0.15-1.3 mL. […] Reported protein concentrations represent the range of all protein samples included in each Table or Figure. Specifically, reported values are the median plus or minus half the range. Extrapolated zero-shear using an experimentally determined extinction coefficient of 1.4 L/g·cm and viscosities reported were measured on a DV2T cone and plate viscometer.
The final concentration of CSAL upon reconstitution in an aqueous CSAL solution ranged from 0.25 M to 0.50 M.
Specifically, 20 mM solutions of the viscosity-lowering agents of interest were used for buffer exchange, and the lyophilized cakes were reconstituted to 0.25 M of each viscosity-lowering agent. […] The sample was first aliquoted. […] The dried protein cakes, containing protein and viscosity-lowering agent (and a negligible amount of buffer salts) were reconstituted to a final volume of approximately 0.10 mL and viscosity-lowering agent concentration as previously described.
First, Polysorbate was removed from the commercially obtained mAb solutions.
Specifically, 20 mM solutions of the salts of interest were used for buffer exchange, and the lyophilized cakes were reconstituted to contain 0.25 M of each agent. Viscosities were measured using either a RheoSense mVROC microfluidic viscometer equipped with an “A” or “B” chip or a DV2T cone and plate viscometer.
as §5

branded ERBITUX® = assay: Viscosity of aqueous solutions of branded ERBITUX®; assay type: physicochemical; details: 224 ± 4 mg/mL mAb; phosphate buffer or 0.25M BSAA; 25° C., pH 7.0
Text: as §1

branded AVASTIN® = assay: Viscosity of aqueous solutions of branded AVASTIN®; assay type: physicochemical; details: 205 ± 5 mg/mL mAb
Method: as §1
Subsequently, the appropriate amount of viscosity-lowering agent was added to result in a final viscosity-lowering agent concentration of 0.15-0.35 M upon reconstitution.

bovine gamma globulin = assay: Viscosity of aqueous gamma globulin solutions on two viscometers; assay type: physicochemical; details: without CSAL, or with 0.25M CSAL (label CSAL), 25° C., pH 7.0
Method: as §1
Aqueous solutions containing 220 mg/mL […]® and 0.25 M CSAA were prepared as described above Example 1. The viscosities at 25° C. and pH 7.0 are reported in Table 29 as extrapolated zero-shear viscosities from cone and plate viscometer measurements and as absolute viscosities measured with a microfluidic viscometer. […] An extrapolated zero-shear viscosity was determined from a plot of absolute viscosity versus shear rate.
In order to compare a broader range of viscosities and protein concentrations, aqueous solutions of a model antibody, bovine gamma globulin, were prepared with and without 0.25 M CSAL. The viscosities were measured as described above at protein concentrations ranging from 110 mg/mL to 310 mg/mL.

[3] = 166 ± 4 mg/mL REMICADE, 0.25M agent, pH 7.0
[4] = 222 ± 6 mg/mL REMICADE, 0.25M agent, pH 7.0
[5] = 222 ± 5 mg/mL mAb, pH 7.0, 0.25M agent, 25° C.
[6] = 225 ± 5 mg/mL mAb, pH 7.0, 0.25M agent, 20° C.
[7] = 225 ± 5 mg/mL mAb, pH 7.0, 0.25M agent, 25° C.
[8] = 225 ± 5 mg/mL mAb, pH 7.0, 0.25M agent, 30° C.
[9] = 200 ± 5 mg/mL mAb, pH 7.0, 25° C., [Salt] 0.25 M of anion, C & P viscometer
[10] = 155 ± 5 mg/mL mAb, pH 7.0, 25° C., [CSAL] 0.25 M
[11] = 155 ± 5 mg/mL mAb, pH 7.0, 25° C., [CSAL] 0.38 M
[12] = 155 ± 5 mg/mL mAb, pH 7.0, 25° C., [CSAL] 0.50 M

Method for ENBREL®: as §4
ENBREL® obtained commercially and containing pharmaceutical excipients (Mannitol, Sucrose, Tromethamine) was purified, buffer exchanged, concentrated, dried, reconstituted, and analyzed as described in Example 1 above (using the extinction coefficient of 0.96 L/g·cm at 280 nm).

Q: With “Vedolizumab: mAb being developed by Millennium Pharmaceuticals for ulcerative colitis and Crohn's disease” as the molecule, how does the “Patients achieving clinical remission” value [1] read?
A: ~60%

Q: What does the source list for `Cc1ncc(C[n+]2csc(CCO)c2C)c(N)n1` [Thiamine HCl]?
A: Viscosity (ENBREL®; 212 ± 7 mg/mL ENBREL): 141 ± 3; Viscosity (ENBREL®; 250 ± 3 mg/mL ENBREL): 305 ± 7; Viscosity (ENBREL®; 271 ± 0 mg/mL ENBREL): 626 ± 32; Viscosity reduction (ENBREL®; […] thiamine HCl vs […] PB): up to 2 fold; Viscosity gradient (increase in viscosity with mAb concentration) (SIMPONI ARIA®): the viscosity gradient is reduced; Viscosity (REMICADE®; 178 mg/mL REMICADE, excipient […]): 40.7 ± 0.3 cP; Viscosity reduction for each mAb [2]: greater than 4 fold; Viscosity (biosimilar AVASTIN®; 190 mg/mL mAb, excipient 0.1 M, 25° C.): 31.5 ± 1.7 cP; Viscosity (biosimilar AVASTIN®; 225 mg/mL mAb, excipient 0.25 M, 25° C.): 53.3 ± 6.8 cP; Viscosity (HERCEPTIN®; 218 mg/mL HERCEPTIN, excipient 0.1 M): 41.6 ± 0.5 cP; Viscosity (HERCEPTIN®; 245 mg/mL HERCEPTIN, 0.10M agent): 41.5 ± 0.5 cP; Viscosity (TYSABRI®; 244 mg/mL TYSABRI, excipient 0.1 M): 43.4 ± 0.7 cP

Q: With `N=C(N)NCCC[C@H](N)C(=O)O.O=S(=O)(O)c1ccccc1` [BSAA, benzenesulfonic acid arginine] as the molecule, how does the Viscosity (REMICADE®; [3]) read?
A: 26.7 ± 1.2 cP

Q: And the Viscosity (REMICADE®; [4])?
A: 92.3 ± 1.4 cP

Q: What about the Viscosity (biosimilar ERBITUX®; [5]) of the same molecule?
A: 53.4 ± 5.5 cP

Q: And the “Biosimilar ERBITUX ® viscosity” value (biosimilar ERBITUX®; 224 ± 4 mg/mL mAb, phosphate buffer or 0.25M BSAA, 25° C., pH 7.0)?
A: 53.4 ± 5.5 cP

Q: And the Viscosity (biosimilar ERBITUX®; [6])?
A: 85.2 ± 0.6 cP

Q: What about the Viscosity (biosimilar ERBITUX®; [7]) of the same molecule?
A: 61.3 ± 0.9 cP

Q: What about the Viscosity (biosimilar ERBITUX®; [8]) of the same molecule?
A: 50.5 ± 1.9 cP

Q: What about the “Fold Reduction” value (biosimilar ERBITUX®; [5]) of the same molecule?
A: ~21 fold

Q: What about the “Fold Reduction” value (biosimilar ERBITUX®; 222 ± 5 mg/mL mAb, pH 7.0, 0.25M agent, 25° C., listed as BSA Arginine) of the same molecule?
A: 21.2 fold

Q: What about the Viscosity (biosimilar AVASTIN®; [9]) of the same molecule?
A: 75.3 ± 0.4 cP

Q: What about the Viscosity (HERCEPTIN®; 254 ± 3 mg/mL HERCEPTIN, 0.25M salt, pH 7.0) of the same molecule?
A: 75.4 ± 5.0 cP

Q: What about the Viscosity (HERCEPTIN®; 270 ± 6 mg/mL HERCEPTIN, 0.25M salt, pH 7.0) of the same molecule?
A: 115 ± 6 cP

Q: What about the Viscosity (TYSABRI®; 230 ± 2 mg/mL TYSABRI, 0.25M agent, pH 7.0) of the same molecule?
A: 34.9 ± 1.3 cP

Q: And the “Branded ERBITUX ® viscosity” value (branded ERBITUX®)?
A: 44.1 ± 0.5 cP

Q: Which “Fold reduction in viscosity” value (branded AVASTIN®; 0.25 M CSAL vs phosphate buffer) does the source give for camphorsulfonic acid lysine [CSAL] here?
A: 3.3 fold

Q: And the “Viscosity, Branded AVASTIN ®” value (branded AVASTIN®; phosphate buffer or 0.25M CSAL, 25° C., pH 7.0)?
A: 46.7 ± 0.9 cP

Q: What about the Viscosity (REMICADE®; [3]) of the same molecule?
A: 27.4 ± 0.2 cP

Q: And the Viscosity (REMICADE®; [4])?
A: 95.3 ± 1.1 cP

Q: And the “Fold decrease in viscosity in the presence of CSAL” value (biosimilar ERBITUX®; 0.25 M CSAL vs original excipients, 80 ± 5 mg/mL mAb, pH 7.0, 25° C.)?
A: 2.7 fold

Q: What about the Viscosity (biosimilar ERBITUX®; 80 ± 5 mg/mL mAb, pH 7.0, 25° C., formulation per label (CSAL 0.25M)) of the same molecule?
A: 3.08 ± 0.18 cP

Q: And the “Magnitude of viscosity-lowering effect (replacement of PB with CSAL)” value (“Magnitude of viscosity-lowering effect” below) (biosimilar ERBITUX®; 100±5 mg/mL mAb, 0.25 M, 25° C., pH 7.0)?
A: 1.1 fold

Q: What about the “Fold viscosity reduction (compared to no CSAL present)” value (biosimilar ERBITUX®; 155 ± 5 mg/mL mAb, pH 7.0, 25° C., [CSAL] 0 M) of the same molecule?
A: 1 fold

Q: What about the Viscosity (biosimilar ERBITUX®; 155 ± 5 mg/mL mAb, pH 7.0, 25° C., [CSAL] 0 M (0.25 M phosphate buffer control)) of the same molecule?
A: 154 ± 0 cP

Q: What about the “Fold viscosity reduction (compared to no CSAL present)” value (biosimilar ERBITUX®; [10]) of the same molecule?
A: 8.4 fold

Q: And the Viscosity (biosimilar ERBITUX®; [10])?
A: 18.3 ± 0.0 cP

Q: And the “Fold viscosity reduction (compared to no CSAL present)” value (biosimilar ERBITUX®; [11])?
A: 10.3 fold

Q: What about the Viscosity (biosimilar ERBITUX®; [11]) of the same molecule?
A: 14.9 ± 0.1 cP

Q: And the “Fold viscosity reduction (compared to no CSAL present)” value (biosimilar ERBITUX®; [12])?
A: 12.1 fold

Q: And the Viscosity (biosimilar ERBITUX®; [12])?
A: 12.7 ± 0.1 cP

Q: What about the Viscosity (biosimilar ERBITUX®; [5]) of the same molecule?
A: 109 ± 1 cP

Q: What about the Viscosity (biosimilar ERBITUX®; [6]) of the same molecule?
A: 166 ± 2 cP

Q: What about the Viscosity (biosimilar ERBITUX®; [7]) of the same molecule?
A: 109 ± 1 cP

Q: What about the Viscosity (biosimilar ERBITUX®; [8]) of the same molecule?
A: 78.4 ± 1.5 cP

Q: And the “Magnitude of viscosity-lowering effect” value (biosimilar ERBITUX®; pH 7)?
A: 10.3 fold

Q: What about the “Fold Reduction” value (biosimilar ERBITUX®; [5]) of the same molecule?
A: 10.4 fold

Q: And the Viscosity (bovine gamma globulin; 170 mg/mL gamma globulin, C & P)?
A: 10.3 ± 1.0 cP

Q: And the Viscosity (bovine gamma globulin; 170 mg/mL gamma globulin, microfluidic)?
A: 10.6 ± 0.1 cP

Q: What about the Viscosity (bovine gamma globulin; 260 mg/mL gamma globulin, C & P) of the same molecule?
A: 93.5 ± 1.2 cP

Q: What about the Viscosity (bovine gamma globulin; 260 mg/mL gamma globulin, microfluidic) of the same molecule?
A: 85.3 ± 0.3 cP

Q: And the Viscosity (bovine gamma globulin; 310 mg/mL gamma globulin, C & P)?
A: 223 ± 1 cP

Q: And the Viscosity (bovine gamma globulin; 310 mg/mL gamma globulin, microfluidic)?
A: 203 ± 2 cP

Q: And the “Magnitude of viscosity-lowering effect” value (biosimilar AVASTIN®; 80 mg/mL mAb, 25° C., pH 7.0)?
A: 2.1 fold

Q: What about the Viscosity (biosimilar AVASTIN®; 210 mg/mL mAb, 0.25 M agent, 25° C., pH 7.0) of the same molecule?
A: 63.0 ± 1.8 cP

Q: And the “Fold decrease in viscosity in the presence of CSAL” value (biosimilar AVASTIN®; 0.25 M CSAL vs original excipients, 101 ± 5 mg/mL mAb, pH 7.0, 25° C.)?
A: 1.5 fold

Q: What about the “Fold reduction in viscosity” value (biosimilar AVASTIN®; 0.25 M CSAL vs phosphate buffer, 205 ± 5 mg/mL mAb) of the same molecule?
A: 1.8 fold

Q: And the Viscosity (biosimilar AVASTIN®; 101 ± 5 mg/mL mAb, pH 7.0, 25° C., formulation per label (CSAL 0.25M))?
A: 4.03 ± 0.24 cP

Q: And the Viscosity (biosimilar AVASTIN®; [9])?
A: 54.9 ± 0.9 cP

Q: And the “Viscosity, Biosimilar AVASTIN ®” value (biosimilar AVASTIN®; 205 ± 5 mg/mL mAb, phosphate buffer or 0.25M CSAL, 25° C., pH 7.0)?
A: 54.9 ± 0.9 cP

Q: What about the Viscosity (biosimilar AVASTIN®; 228 ± 5 mg/mL mAb, agent 0.25 M, 25° C., pH 7.0) of the same molecule?
A: 113 ± 0 cP

Q: And the Viscosity (biosimilar AVASTIN®; 230 ± 5 mg/mL mAb, pH 7.0, 0.25M, 20° C.)?
A: 152 ± 0 cP

Q: And the Viscosity (biosimilar AVASTIN®; 230 ± 5 mg/mL mAb, pH 7.0, 0.25M, 25° C.)?
A: 107 ± 4 cP

Q: What about the Viscosity (biosimilar AVASTIN®; 230 ± 5 mg/mL mAb, pH 7.0, 0.25M, 30° C.) of the same molecule?
A: 95.5 ± 5.4 cP

Q: What about the Viscosity (biosimilar AVASTIN®; 230 ± 5 mg/mL mAb, pH 7.0, […], 20° C.) of the same molecule?
A: 157 ± 0 cP

Q: And the Viscosity (biosimilar AVASTIN®; 230 ± 5 mg/mL mAb, pH 7.0, […], 25° C.)?
A: 113 ± 0 cP

Q: What about the Viscosity (biosimilar AVASTIN®; 230 ± 5 mg/mL mAb, pH 7.0, […], 30° C.) of the same molecule?
A: 91.7 ± 3.3 cP

Q: What about the “Magnitude of viscosity-lowering effect” value (biosimilar AVASTIN®; 230±5 mg/mL mAb, 25° C., pH 7.0) of the same molecule?
A: 3.7 fold
